Reference: ChEMBL document CHEMBL1138597, “Synthesis and biological evaluation of ((4-keto)-phenoxy)methyl biphenyl-4-sulfonamides: a class of potent aggrecanase-1 inhibitors” (Bioorg Med Chem Lett, 2009)
Each block holds one compound with its values, some of them ahead of it. The source made the active and inactive calls. No cut-off for these calls is given here.

Key:
[1] = target: T1, A disintegrin and metalloproteinase with thrombospondin motifs 4 (Homo sapiens, UniProt O75173); assay: Inhibition of aggrecanase1
T1 sequence (O75173 whole entry): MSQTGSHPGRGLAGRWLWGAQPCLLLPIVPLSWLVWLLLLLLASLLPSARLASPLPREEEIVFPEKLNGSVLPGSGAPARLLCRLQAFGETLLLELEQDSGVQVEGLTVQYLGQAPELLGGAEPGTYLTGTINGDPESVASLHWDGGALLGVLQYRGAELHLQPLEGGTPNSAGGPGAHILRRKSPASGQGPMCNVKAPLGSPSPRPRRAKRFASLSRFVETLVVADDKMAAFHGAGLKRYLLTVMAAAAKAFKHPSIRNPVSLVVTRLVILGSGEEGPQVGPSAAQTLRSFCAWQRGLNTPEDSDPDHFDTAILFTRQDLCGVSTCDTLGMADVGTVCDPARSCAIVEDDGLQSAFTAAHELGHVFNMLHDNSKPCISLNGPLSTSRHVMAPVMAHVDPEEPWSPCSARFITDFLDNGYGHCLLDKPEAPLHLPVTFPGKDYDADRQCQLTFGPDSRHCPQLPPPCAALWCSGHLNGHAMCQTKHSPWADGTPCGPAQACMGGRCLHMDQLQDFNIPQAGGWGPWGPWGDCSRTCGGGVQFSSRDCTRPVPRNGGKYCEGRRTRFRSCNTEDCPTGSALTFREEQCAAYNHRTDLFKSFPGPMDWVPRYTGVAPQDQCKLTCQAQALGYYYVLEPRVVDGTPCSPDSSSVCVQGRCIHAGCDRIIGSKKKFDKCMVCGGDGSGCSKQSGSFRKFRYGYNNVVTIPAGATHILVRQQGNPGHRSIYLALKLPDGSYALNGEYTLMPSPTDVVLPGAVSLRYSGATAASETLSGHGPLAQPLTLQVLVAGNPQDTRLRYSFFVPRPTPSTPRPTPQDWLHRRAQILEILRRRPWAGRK

Interstitial collagenase = target: T2, Interstitial collagenase (Homo sapiens, UniProt P03956); assay: Inhibition of MMP1
T2 sequence (P03956 whole entry): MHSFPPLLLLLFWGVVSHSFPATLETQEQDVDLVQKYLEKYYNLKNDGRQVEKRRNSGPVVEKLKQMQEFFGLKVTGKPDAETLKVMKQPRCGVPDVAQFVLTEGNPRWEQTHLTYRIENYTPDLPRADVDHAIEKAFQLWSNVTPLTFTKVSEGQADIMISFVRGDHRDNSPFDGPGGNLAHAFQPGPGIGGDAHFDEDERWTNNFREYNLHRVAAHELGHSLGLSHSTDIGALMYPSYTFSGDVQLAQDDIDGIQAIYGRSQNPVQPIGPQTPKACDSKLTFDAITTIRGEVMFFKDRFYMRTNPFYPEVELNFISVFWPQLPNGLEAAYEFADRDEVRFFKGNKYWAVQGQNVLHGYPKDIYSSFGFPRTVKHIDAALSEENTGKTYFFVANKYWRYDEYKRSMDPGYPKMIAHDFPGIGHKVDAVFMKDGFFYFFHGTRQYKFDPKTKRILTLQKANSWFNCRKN

[2] = Half life in Sprague-Dawley rat at 2 mg/kg, iv or 25 mg/kg, po; type: ADME, organism-based; details: in vivo
[3] = target: Matrix metalloproteinase-14 (Homo sapiens, UniProt P50281); assay: Inhibition of MMP14
Collagenase 3 = Collagenase 3 (Homo sapiens, UniProt P45452); assay: Inhibition of MMP13
[4] = target: T3, A disintegrin and metalloproteinase with thrombospondin motifs 4 (Bos taurus) (UniProt Q9TT93); assay: Inhibition of IL1-induced aggrecanase activity in bovine cartilage explant assessed as inhibition of proteoglycan degradation at 10 ug/ml after 3 days
T3 sequence (whole entry): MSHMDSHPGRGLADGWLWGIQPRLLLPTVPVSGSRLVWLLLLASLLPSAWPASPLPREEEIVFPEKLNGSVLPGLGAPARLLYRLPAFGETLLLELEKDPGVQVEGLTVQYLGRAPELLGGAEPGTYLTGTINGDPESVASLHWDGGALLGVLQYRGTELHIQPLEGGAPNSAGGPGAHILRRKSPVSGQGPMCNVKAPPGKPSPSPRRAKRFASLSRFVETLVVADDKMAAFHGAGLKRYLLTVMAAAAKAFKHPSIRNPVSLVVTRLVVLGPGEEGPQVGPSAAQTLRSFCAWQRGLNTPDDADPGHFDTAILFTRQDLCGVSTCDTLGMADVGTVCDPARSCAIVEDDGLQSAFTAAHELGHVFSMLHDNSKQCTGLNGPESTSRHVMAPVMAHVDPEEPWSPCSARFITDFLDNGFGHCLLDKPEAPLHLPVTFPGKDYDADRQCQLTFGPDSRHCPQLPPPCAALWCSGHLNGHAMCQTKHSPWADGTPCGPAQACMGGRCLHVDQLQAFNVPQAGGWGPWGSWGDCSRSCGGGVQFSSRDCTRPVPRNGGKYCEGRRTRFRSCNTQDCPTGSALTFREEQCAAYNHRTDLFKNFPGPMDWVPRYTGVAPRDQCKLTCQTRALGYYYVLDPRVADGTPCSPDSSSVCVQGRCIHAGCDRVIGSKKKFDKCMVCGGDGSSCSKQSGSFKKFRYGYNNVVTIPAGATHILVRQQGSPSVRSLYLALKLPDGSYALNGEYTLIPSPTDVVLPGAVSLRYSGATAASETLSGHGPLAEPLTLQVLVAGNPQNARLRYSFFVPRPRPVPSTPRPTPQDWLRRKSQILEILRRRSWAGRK

[5] = Cmax in Sprague-Dawley rat at 2 mg/kg, iv or 25 mg/kg, po; type: ADME, organism-based; details: in vivo
[6] = Clearance in Sprague-Dawley rat at 2 mg/kg, iv or 25 mg/kg, po; type: ADME, organism-based; details: in vivo
[7] = target: 72 kDa type IV collagenase (Homo sapiens, UniProt P08253); assay: Inhibition of MMP2
Chain of 72 kDa type IV collagenase (P08253 whole entry): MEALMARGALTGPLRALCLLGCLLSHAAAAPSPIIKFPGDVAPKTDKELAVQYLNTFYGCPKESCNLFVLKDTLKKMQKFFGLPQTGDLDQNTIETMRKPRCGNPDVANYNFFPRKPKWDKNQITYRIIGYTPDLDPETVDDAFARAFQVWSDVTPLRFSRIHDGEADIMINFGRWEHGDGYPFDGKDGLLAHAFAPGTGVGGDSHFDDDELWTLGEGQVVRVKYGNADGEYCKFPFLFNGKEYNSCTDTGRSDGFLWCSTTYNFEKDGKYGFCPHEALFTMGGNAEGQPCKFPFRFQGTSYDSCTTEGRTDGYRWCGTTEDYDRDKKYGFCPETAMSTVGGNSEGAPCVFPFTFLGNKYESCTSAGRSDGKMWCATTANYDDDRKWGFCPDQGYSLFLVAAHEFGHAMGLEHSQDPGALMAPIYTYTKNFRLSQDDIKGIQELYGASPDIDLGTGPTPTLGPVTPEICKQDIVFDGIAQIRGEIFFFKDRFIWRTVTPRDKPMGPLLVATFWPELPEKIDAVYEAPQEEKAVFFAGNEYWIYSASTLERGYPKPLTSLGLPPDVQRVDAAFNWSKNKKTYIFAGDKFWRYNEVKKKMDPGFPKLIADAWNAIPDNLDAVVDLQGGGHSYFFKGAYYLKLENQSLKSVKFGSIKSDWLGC

[8] = Oral bioavailability in Sprague-Dawley rat at 25 mg/kg; type: ADME, organism-based; details: in vivo
[9] = target: T3, A disintegrin and metalloproteinase with thrombospondin motifs 4 (Bos taurus); assay: Inhibition of IL1-induced aggrecanase activity in bovine cartilage explant assessed as release of degraded extracellular matrix aggrecan
[10] = target: T4, A disintegrin and metalloproteinase with thrombospondin motifs 5 (Homo sapiens, UniProt Q9UNA0); assay: Inhibition of aggrecanase2
T4 sequence (Q9UNA0 whole entry): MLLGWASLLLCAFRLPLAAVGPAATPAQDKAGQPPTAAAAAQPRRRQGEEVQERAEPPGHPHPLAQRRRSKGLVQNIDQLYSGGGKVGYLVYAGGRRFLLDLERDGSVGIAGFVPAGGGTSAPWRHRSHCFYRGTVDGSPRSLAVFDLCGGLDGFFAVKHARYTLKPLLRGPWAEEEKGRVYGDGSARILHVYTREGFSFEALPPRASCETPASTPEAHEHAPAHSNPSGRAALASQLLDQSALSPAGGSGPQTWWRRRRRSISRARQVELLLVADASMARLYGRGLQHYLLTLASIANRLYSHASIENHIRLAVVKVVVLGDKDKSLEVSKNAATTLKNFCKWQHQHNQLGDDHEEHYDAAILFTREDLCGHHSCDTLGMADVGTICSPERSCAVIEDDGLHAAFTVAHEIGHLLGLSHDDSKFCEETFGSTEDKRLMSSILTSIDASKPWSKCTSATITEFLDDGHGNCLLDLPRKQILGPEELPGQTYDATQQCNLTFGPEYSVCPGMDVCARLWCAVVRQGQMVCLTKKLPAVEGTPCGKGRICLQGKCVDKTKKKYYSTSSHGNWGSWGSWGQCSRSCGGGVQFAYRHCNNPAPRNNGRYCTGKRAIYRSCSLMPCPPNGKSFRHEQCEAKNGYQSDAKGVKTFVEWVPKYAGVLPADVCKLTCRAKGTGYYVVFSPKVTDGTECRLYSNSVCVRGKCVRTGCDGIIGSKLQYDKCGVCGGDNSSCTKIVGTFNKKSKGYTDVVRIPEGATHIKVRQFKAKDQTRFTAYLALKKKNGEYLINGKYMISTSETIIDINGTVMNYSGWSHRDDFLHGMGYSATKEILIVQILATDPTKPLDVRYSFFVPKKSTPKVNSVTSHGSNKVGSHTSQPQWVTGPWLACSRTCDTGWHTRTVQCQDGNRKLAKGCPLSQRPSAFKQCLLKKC

[11] = target: T5, A disintegrin and metalloproteinase with thrombospondin motifs 5 (Homo sapiens) (UniProt Q9UNA0); assay: Inhibition of aggrecanase2 at 2.5 uM
T5 sequence (whole entry): T4 sequence (Q9UNA0 whole entry)

Compound: Cc1c(CC(=O)Oc2ccc(-c3ccc(S(=O)(=O)N[C@@H](C(=O)O)C(C)C)cc3)cc2)oc2ccccc12
- IC50 [1]: 700 nM

Compound: Cc1cccc(Oc2ccc(OCc3ccc(-c4ccc(S(=O)(=O)N[C@@H](C(=O)O)C(C)C)cc4)cc3)cc2)n1
- IC50 [1]: 730 nM

Compound: CC(C)[C@@H](NS(=O)(=O)c1ccc(-c2ccc(COc3ccc4c(c3)CCCC4=O)cc2)cc1)C(=O)O
- IC50 (Interstitial collagenase): > 100000 nM
- IC50 [3]: 1300 nM
- IC50 (Collagenase 3): 2.2 nM
- IC50 [10]: 6600 nM
- inhibition [4]: 53%
- IC50 [1]: 230 nM
- IC50 [7]: 6.3 nM
- Activity [9]: Active

Compound: CC(C)[C@@H](NS(=O)(=O)c1ccc(-c2ccc(COc3ccc4c(c3)CCCC4=O)cc2)cc1C(F)(F)F)C(=O)O
- IC50 [1]: 3200 nM

Compound: CC(C)[C@@H](NS(=O)(=O)c1ccc(-c2ccc(COc3cc4cccc(C(F)(F)F)c4nc3C(F)(F)F)cc2)cc1)C(=O)O
- IC50 [1]: 200 nM

Compound: CC(C)[C@@H](NS(=O)(=O)c1ccc(-c2ccc(COc3ccc4ccccc4n3)cc2)cc1)C(=O)O
- IC50 [1]: 400 nM

Compound: CC(C)[C@@H](NS(=O)(=O)c1ccc(-c2ccc(COc3ccc4c(c3)CCCC4=O)cc2)cc1OC(F)(F)F)C(=O)O
- IC50 [1]: 20000 nM

Compound: CC(C)[C@@H](NS(=O)(=O)c1ccc(-c2ccc(COc3ccc4c(c3)CCCC4=O)cc2)cc1F)C(=O)O
- IC50 [1]: 180 nM

Compound: CC(C)[C@@H](NS(=O)(=O)c1ccc(-c2ccc(COc3ccc(C(=O)c4ccc(F)cc4)cc3)cc2)cc1)C(=O)O
- IC50 (Interstitial collagenase): > 100000 nM
- IC50 [3]: 220 nM
- IC50 (Collagenase 3): 6.3 nM
- inhibition [11]: 55%
- inhibition [4]: 71%
- IC50 [1]: 80 nM
- IC50 [7]: 3.6 nM
- Activity [9]: Active

Compound: CC(C)C(=O)c1ccc(OCc2ccc(-c3ccc(S(=O)(=O)N[C@@H](C(=O)O)C(C)C)cc3)cc2)cc1
- IC50 (Interstitial collagenase): > 100000 nM
- IC50 [3]: 915 nM
- IC50 (Collagenase 3): 1.1 nM
- Activity [4]: Active
- IC50 [7]: 1.3 nM
- Activity [9]: Active

More lines, now with the values ahead:

- IC50 [1]: 430 nM
Compound: CC(=O)c1ccc(OCc2ccc(-c3ccc(S(=O)(=O)N[C@@H](C(=O)O)C(C)C)cc3)cc2)cc1

- IC50 [1]: 6000 nM
Compound: CC(C)[C@@H](NS(=O)(=O)c1ccc(-c2ccc(COc3ccc(CN4CCOCC4)cc3)cc2)cc1)C(=O)O

- IC50 [1]: 4900 nM
Compound: CC(C)[C@@H](NS(=O)(=O)c1ccc(-c2ccc(COc3cccc(N(C)C)c3)cc2)cc1)C(=O)O

- IC50 (Interstitial collagenase): > 100000 nM
- half-life [2]: 3.07 h
- IC50 [3]: 1640 nM
- IC50 (Collagenase 3): 15 nM
- inhibition [4]: 69%
- Cmax [5]: 694 ng/mL
- IC50 [1]: 90 nM
- clearance [6]: 6.9 mL/min/kg
- IC50 [7]: 5.3 nM
- bioavailability [8]: 13%
- Activity [9]: Active
Compound: CC(C)[C@@H](NS(=O)(=O)c1ccc(-c2ccc(COc3ccc(C(=O)C4CCCCC4)cc3)cc2)cc1)C(=O)O

- IC50 [1]: 5200 nM
Compound: CC(C)[C@@H](NS(=O)(=O)c1ccc(-c2ccc(COc3ccc(C(=O)N4CCOCC4)cc3)cc2)cc1)C(=O)O

- IC50 [1]: 590 nM
Compound: CC(C)[C@@H](NS(=O)(=O)c1ccc(-c2ccc(COc3ccc(NC(=O)OC(C)(C)C)cc3)cc2)cc1)C(=O)O

- IC50 [1]: 230 nM
Compound: CC(C)[C@@H](NS(=O)(=O)c1ccc(-c2ccc(COc3ccc(C(=O)c4ccccc4)cc3)cc2)cc1)C(=O)O
